Assays:
[1] = system: phosphoglycerate kinase (PGK) mRNA; test: PGK mRNA expression (qPCR) in wild type murine embryonic fibroblasts; assay type: cell-based; conditions: hypoxic conditions (1% O2), 1, 10 and 100 μM, vs. hypoxia control, FIG. 2A
Protocol: Total RNA was isolated from tissues and cells by using TRIzol™ Reagent (Invitrogen) and the RNeasy kit (Qiagen), respectively. 1 μg RNA was used for reverse transcription using SuperScript II First-Strand Synthersis System (Invitrogen). cDNA's were amplified in a SYR Green or TaqMan Universal Master Mix (Applied Biosystems). Quantitative PCR (qPCR) was performed on ABI Prism 7700 sequence detection system. PCR conditions are: 10 min at 95° C., 40 cycles of 15 seconds at 95° C. and 1 minute at 60° C. The relative amount of mRNA was calculated after normalization to β-actin.
Cells were cultured in DMEM (#11965-092, Invitrogen) supplemented with 10% fetal bovine serum (Invitrogen), 100 U/mL penicillin and […] streptomycin. For glucose deprivation, DMEM without glucose (#11966-025, Invitrogen) was used.
Mouse embryonic fibroblasts (MEFs) were isolated from E12.5 embryos and immortalized by stable transfection with SV40 large T antigen.

HIF-1α = test: Immunoblot for HIF-1α in murine bone marrow-derived macrophages; assay type: cell-based; conditions: murine bone marrow-derived macrophages treated 18 hours; p=0.105; FIG. 11A
Protocol: To generate bone marrow-derived macrophages (BDMs), femoral bone marrow was isolated and progenitor cells were plated in RPMI-1640 supplemented with 10% FBS, 1% PSA, 10 μg/mL of polymyxin B, and 20 ng/mL of recombinant murine M-CSF. Cells were cultured for 5 days with the addition of fresh M-CSF every other day. Differentiated BDM were serum-starved for 2 hours and then treated with 100 ng/mL of murine GM-CSF and/or 25 μM the disclosed HIF-2α stabilizer in RPMI-1640 containing 1% FBS and 10 μg/mL polymixin B. Culture supernatants were collected after 72 hours and assayed for VEGF and sVEGFR-1 content by ELISA (R&D Systems).
In order to confirm the selective upregulation of HIF-2α by the disclosed HIF-2α stabilizer, murine bone marrow-derived macrophages were treated with the disclosed HIF-2α stabilizer for 18 hours, and cells were then lysed and immunoblotted for HIF-1α and HIF-2α.

Pmel17 mRNA = test: Evaluation of lung metastases by Pmel17 mRNA in lungs of B16F10 tumor-bearing mice; assay type: in vivo; conditions: stabilizer I.P., GM-CSF I.T., vs vehicle control; FIG. 5
Protocol: Lung metastases were evaluated by detection of mRNA for melanocyte-specific proteins within the lungs of tumor-bearing mice. B16F10 tumor-bearing mice were treated with GM-CSF and/or the disclosed HIF-2α stabilizer, as depicted in FIG. 3. At the time of sacrifice, lungs were excised and flash-frozen in liquid nitrogen. Frozen lungs were homogenized in liquid nitrogen and the pulverized material was dissolved in TRIzol™ reagent (Invitrogen). […] The melanocyte-specific Pmel17 was detected by nested PCR using a modification of the protocol described by Tsukamoto et al. For the initial reaction, 30 cycles of PCR were carried out (95° C. for 1 minute, 58° C. for 1 min, 72° C. for 1 min) in a 20 μL reaction volume containing 2 μL of cDNA. […] Data were analyzed according to the comparative threshold method and normalized against the GAPDH internal control transcript. Results are semi-quantitative and represent the fold difference in transcript levels in vehicle-treated control mice as compared with levels in mice treated with the disclosed HIF-2α stabilizer and/or GM-CSF.
Lung metastases were evaluated by detection of mRNA for melanocyte-specific proteins within the lungs of tumor-bearing mice. […] Data were analyzed according to the comparative threshold method and normalized against the β-actin internal control transcript. […]

In the case of `O=C(O)CNC(=O)c1ncc(-c2cccc(F)c2)cc1O` [disclosed HIF-2α stabilizer, {[5-(3-Fluorophenyl)-3-hydroxypyridine-2-carbonyl]amino} acetic acid], the “PGK mRNA (relative amount)” value [1] is reported as “dramatic reduction”, the HIF-1α protein (HIF-1α) is reported as “no corresponding increase” and the “relative metastasis to the lung (Pmel17 mRNA expression)” value (Pmel17 mRNA) is reported as “reduced metastasis”.

From patent publication US20170105981A1, “METHODS FOR STABILIZING HYPOXIA INDUCIBLE FACTOR-2 ALPHA AS A METHOD FOR TREATING CANCER” (The Ohio State Innovation Foundation, priority 2011, published 2017)
